Experimental data as given in US9783490B2, “Antimicrobial compounds, their synthesis and applications thereof” (The Secretary of State for Health, priority 2012, dated 2017).

Key:
MRSA (ATCC 33591) = assay: Minimum Inhibitory Concentration, micro-dilution broth; assay type: cell-based, Methicillin resistant S. aureus; conditions: for Minimum Inhibitory Concentration MRSA: Drug resistant bacteria
Procedure: (§1) Microorganisms and Culture Conditions: Bacterial strains, S. aureus (MTCC 737) and E. coli (MTCC 443) are purchased from MTCC (Chandigarh, India). MRSA (ATCC 33591), Pseudomonas aeruginosa (ATCC 4676), […]-lactamase producing and drug-resistant Klebsiella pneumonia (ATCC700603), Enterococcus faecium (ATCC 19634) and vancomycin resistant Enterococcus faecium (ATCC 51559) are obtained from ATCC (Rockville, Md., USA).
(§2) E. coli is cultured in Luria Bertani broth (10 g of tryptone, 5 g of yeast extract, and 10 g of NaCl in 1000 mL of sterile distilled water (pH −7) while S. aureus, Pseudomonas aeruginosa (ATCC 4676) and MRSA are grown in Yeast-dextrose broth (1 g of beef extract, 2 g of yeast extract, 5 g of peptone and 5 g of NaCl in 1000 mL of sterile distilled water). For all Enterococcus faecium, Brain Heart Infusion broth (BHI) is used. For solid media 5% agar was used along with above mentioned composition. K. pneumonia was grown in nutrient media (3 g of beef extract and 5 g of peptone in 1000 mL of sterile distilled water). The bacterial samples were freeze dried and stored at −80° C. 5 μl of these stocks were added to 3 mL of the nutrient broth and the culture was grown for 6 h at 37° C. prior to the experiments.
(§3) Antibacterial activity is reported as Minimum Inhibitory Concentration (MIC), i.e. the lowest concentration of the antimicrobial agent that will inhibit the growth of a microorganism after overnight incubation. Water-soluble ACK, NCK and BCK series of compounds are assayed in a modified micro-dilution broth format. Stock solutions are made by serially diluting the compounds using autoclaved Millipore water. Bacteria, to be tested are grown for about 6 hrs in the suitable media containing ˜10^9 cfu/mL (determined through dilution plate technique by spread plate method), which is then diluted to 10^5 cfu/mL using nutrient media. 50 μL of serially diluted compound is added to a 96 well plate containing 150 μL bacterial solutions. Two controls are made; one containing 150 μL of media and 50 μL of compound and the other containing 200 μL of bacterial solution. […] MIC value is determined by taking the average of triplicate O.D. values for each concentration and plotting it against concentration using Origin Pro 8.0 software. The data is then subjected to sigmoidal fitting. From the curve, MIC value is determined, as the point in the curve where the O.D. is similar to that of control having no bacteria. The MIC values and errors of independent experiments are reported as average and standard deviation of triplicates.

human RBCs = assay: Haemolytic activity (HC50); assay type: cell-based; conditions: concentration at which 50% of the blood cells are lysed; human RBCs
Procedure: Erythrocytes are isolated from freshly drawn, heparinized human blood and re-suspended to 5 vol % in PBS (pH 7.4). In a 96-well microtiter plate, 150 μl of erythrocyte suspension is added to 50 μl of serially diluted compound. Two controls are made, one without compound and other with 50 μl of 1 vol % solution of Triton X-100. The plate is incubated for about 1 hr at a temperature of about 37° C. The plate is then centrifuged at 3,500 rpm for about 5 min, 100 μl of the supernatant from each well is transferred to a fresh microtiter plate, and absorbance at 540 nm is measured. Percentage of hemolysis is determined as (A−A0)/(Atotal−A0)×100, where A is the absorbance of the test well, A0 the absorbance of the negative controls (without compound), and A total the absorbance of 100% hemolysis wells (with Triton X-100), when absorbance is read at 540 nm.
Toxicity studies of the compounds are carried out on freshly drawn human RBCs. Toxicity of the antimicrobial compounds of the present disclosure is defined by their HC50 values illustrated in Table 3, i.e. the concentration of compound at which 50% of the blood cells are lysed. Haemolytic studies conducted herein illustrates that the antimicrobial compounds provided by the instant disclosure are selective towards drug sensitive bacteria and drug resistant bacteria over human RBCs, thus establishing the non-toxicity of the present compounds.

[1] = test system: drug-resistant Klebsiella pneumonia (ATCC700603); assay: Minimum Inhibitory Concentration, micro-dilution broth; assay type: cell-based; conditions: for Minimum Inhibitory Concentration K. pneumonia: Drug resistant bacteria
Procedure: as §1, §2, §3

[2] = test system: Pseudomonas aeruginosa (ATCC 4676); assay: as above; assay type: cell-based; conditions: for Minimum Inhibitory Concentration P. aeruginosa: Drug sensitive bacteria
Procedure: as §1, §2, §3

[3] = test system: vancomycin resistant Enterococcus faecium (ATCC 51559); assay: as above; assay type: cell-based; conditions: for Minimum Inhibitory Concentration VRE: Drug resistant bacteria
Procedure: as §1, §2, §3

[4] = test system: Enterococcus faecium (ATCC 19634); assay: as above; assay type: cell-based; conditions: for Minimum Inhibitory Concentration E. faecium: Drug sensitive bacteria
Procedure: as §1, §2, §3

S. aureus (MTCC 737) = assay: as above; assay type: cell-based, Staphylococcus aureus; conditions: for Minimum Inhibitory Concentration S. aureus: Drug sensitive bacteria
Procedure: as §1, §2, §3

E. coli (MTCC 443) = assay: as above; assay type: cell-based, Escherichia coli; conditions: for Minimum Inhibitory Concentration E. coli: Drug sensitive bacteria
Procedure: as §1, §2, §3

SMILES	MIC value against methicillin-resistant S. aureus (MRSA (ATCC 33591))	Minimum Inhibitory Concentration MRSA (MRSA (ATCC 33591)) [µg/mL]	HC50 (human RBCs) [µg/mL]	MIC value against K. pneumonia [1]	Minimum Inhibitory Concentration K. pneumonia [1] [µg/mL]	MIC value against P. aeruginosa [2]	Minimum Inhibitory Concentration P. aeruginosa [2] [µg/mL]	MIC value against vancomycin-resistant E. faecium [3]	Minimum Inhibitory Concentration VRE [3] [µg/mL]	MIC value against E. faecium [4]	Minimum Inhibitory Concentration E. faecium [4] [µg/mL]	MIC value against S. aureus (S. aureus (MTCC 737))	Minimum Inhibitory Concentration S. aureus (S. aureus (MTCC 737)) [µg/mL]	MIC value against E. coli (E. coli (MTCC 443))	Minimum Inhibitory Concentration E. coli (E. coli (MTCC 443)) [µg/mL]
CCCCCCCCN(Cc1c2ccccc2c(Cl)c2ccccc12)C(=O)[C@@H](N)CCCCN.O=C(O)C(F)(F)F [ACK-8, Lys-N-octyl-10-Aminomethyl-9-chloroanthracene trifluoroacetate]	~2.3 µg/mL	2.3	64	~4.3 µg/mL	4.3	~3.8 µg/mL	3.8	~3 µg/mL	3	~2.5 µg/mL	2.5	~2.2 µg/mL	2.2	~2.9 µg/mL	2.9
CCCCCCCCCCN(Cc1cccc2ccccc12)C(=O)[C@@H](N)CCCCN.O=C(O)C(F)(F)F [NCK-10, Lys-N-decyl-1-Aminomethylnaphthalene trifluoroacetate]	~2.6 µg/mL	2.6	54	~5.8 µg/mL	5.8	~3 µg/mL	3	~1.6 µg/mL	1.6	~3.5 µg/mL	3.5	~2.5 µg/mL	2.5	~4 µg/mL	4
CCCCCCN(Cc1cccc2ccccc12)C(=O)[C@@H](N)CCCCN.O=C(O)C(F)(F)F [NCK-6, Lys-N-hexyl-1-Aminomethylnaphthalene trifluoroacetate]		65	508		100	about 11 μg/ml	11		54		34		20		25
CCCCCCCCCCN(Cc1ccccc1)C(=O)[C@@H](N)CCCCN.O=C(O)C(F)(F)F [BCK-10, Lys-N-decyl-1-Aminomethylbenzene trifluoroacetates]	about 15.7 μg/ml	15.7	95	about 31 μg/ml	31	about 4 μg/ml	4	about 5.8 μg/ml	5.8	about 6.5 μg/ml	6.5	about 5.7 μg/ml	5.7	about 6.5 μg/ml	6.5
CCCCCCCCN(Cc1cccc2ccccc12)C(=O)C(N)CCCCN.O=C(O)C(F)(F)F (stereo not drawn) [NCK-8, Lys-N-octyl-1-Aminomethylnaphthalene trifluoroacetate]	about 4.4 μg/ml	4.4	60	about 13 μg/ml	13	~5.4 µg/mL	5.4	about 7 μg/ml	7	about 5.5 μg/ml	5.5	about 6.3 μg/ml	6.3	about 5 μg/ml	5
CCN(Cc1c2ccccc2c(Cl)c2ccccc12)C(=O)C(N)CCCCN.O=C(O)C(F)(F)F (stereo not drawn) [ACK-2, Lys-N-ethyl-10-Aminomethyl-9-chloroanthracene trifluoroacetate]		21	118		31	about 4 μg/ml	4		7.2		13.6		11		25
CCCCN(Cc1c2ccccc2c(Cl)c2ccccc12)C(=O)C(N)CCCCN.O=C(O)C(F)(F)F (stereo not drawn) [ACK-4, Lys-N-butyl-10-Aminomethyl-9-chloroanthracene trifluoroacetate]	about 6.3 μg/ml	6.3	91	about 17 μg/ml	17	~1.9 µg/mL	1.9	about 5.3 μg/ml	5.3	about 4.5 μg/ml	4.5	about 5.3 μg/ml	5.3	about 4.8 μg/ml	4.8
CCCCCCCCCCCCN(Cc1ccccc1)C(=O)C(N)CCCCN.O=C(O)C(F)(F)F (stereo not drawn) [BCK-12, Lys-N-dodecyl-1-Aminomethylbenzene trifluoroacetates]	~2.9 µg/mL	2.9	45	~2.8 µg/mL	2.8	about 4 μg/ml	4	~3.3 µg/mL	3.3	~2.6 µg/mL	2.6	~2.7 µg/mL	2.7	~5 µg/mL	5
